Measurements: PubChem BioAssay AID1918938 (Molecular Pharmacology Branch, DTP, NCI, 2023)
Values joined by “and” are separate entries in the source; they are usually repeats but may differ in a detail not shown here. Equal entries are not always repeated.

Tested on: 556581-035-R-J1-PDC complex spheroid viability
Assay: Anticancer human tumor 556581-035-R-J1-PDC patient-derived ovarian carcinoma cell line growth inhibition
Details: for viability, T/C: stronger effect = lower value
Procedure, shortened: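 Multicellular complex spheroids of tumor cells with human endothelial cells (HUVEC) and mesenchymal stem cells; the LSD1 inhibitor iadademstat was combined with standard-of-care or investigational agents. Top concentration at or near clinical Cmax, half-log dilutions; final DMSO ≤0.25%.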

[1] = curve of first compound, second compound 0.1 µM
[2] = curve of first compound, second compound 0.316 µM
[3] = curve of first compound, second compound 1 µM
[4] = curve of first compound, second compound 3.16 µM
[5] = curve of first compound, second compound 10 µM
[6] = second compound 0.1 µM, first compound 0.000316 µM
[7] = second compound 0.1 µM, first compound 0.001 µM
[8] = second compound 0.1 µM, first compound 0.00316 µM
[9] = second compound 0.1 µM, first compound 0.01 µM
[10] = second compound 0.1 µM, first compound 0.0316 µM
[11] = second compound 0.1 µM, first compound 0.1 µM
[12] = second compound 0.316 µM, first compound 0.000316 µM
[13] = second compound 0.316 µM, first compound 0.001 µM
[14] = second compound 0.316 µM, first compound 0.00316 µM
[15] = second compound 0.316 µM, first compound 0.01 µM
[16] = second compound 0.316 µM, first compound 0.0316 µM
[17] = second compound 0.316 µM, first compound 0.1 µM
[18] = second compound 1 µM, first compound 0.000316 µM
[19] = second compound 1 µM, first compound 0.001 µM
[20] = second compound 1 µM, first compound 0.00316 µM
[21] = second compound 1 µM, first compound 0.01 µM
[22] = second compound 1 µM, first compound 0.0316 µM
[23] = second compound 1 µM, first compound 0.1 µM
[24] = second compound 3.16 µM, first compound 0.000316 µM
[25] = second compound 3.16 µM, first compound 0.001 µM
[26] = second compound 3.16 µM, first compound 0.00316 µM
[27] = second compound 3.16 µM, first compound 0.01 µM
[28] = second compound 3.16 µM, first compound 0.0316 µM
[29] = second compound 3.16 µM, first compound 0.1 µM
[30] = second compound 10 µM, first compound 0.000316 µM
[31] = second compound 10 µM, first compound 0.001 µM
[32] = second compound 10 µM, first compound 0.00316 µM
[33] = second compound 10 µM, first compound 0.01 µM
[34] = second compound 10 µM, first compound 0.0316 µM
[35] = second compound 10 µM, first compound 0.1 µM
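Also: spheroids exposed to agents for seven days.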
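For viability, T/C in this document: 100% = DMSO vehicle control wells.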

CC(C)CC(NC(=O)CNC(=O)c1cc(Cl)ccc1Cl)B1OC(=O)CC(CC(=O)O)(C(=O)O)O1 (centres undefined) + NC1CCC(NC2CC2c2ccccc2)CC1
IC50 [1]: 0.00401 µM
IC50 [2]: 0.00435 µM
IC50 [3]: 0.00448 µM
IC50 [4]: 0.0046 µM
IC50 [5]: 0.00325 µM
viability, T/C [6]: 90.7%
viability, T/C [7]: 99.5%
viability, T/C [8]: 62.3%
viability, T/C [9]: 3.38%
viability, T/C [10]: 0.24%
viability, T/C [11]: 0.3%
viability, T/C [12]: 95.5%
viability, T/C [13]: 93.4%
viability, T/C [14]: 67.6%
viability, T/C [15]: 4.37%
viability, T/C [16]: 0.84%
viability, T/C [17]: 0.84%
viability, T/C [18]: 86.2%
viability, T/C [19]: 88%
viability, T/C [20]: 69.7%
viability, T/C [21]: 4.47%
viability, T/C [22]: 0.33%
viability, T/C [23]: 0.17%
viability, T/C [24]: 91.3%
viability, T/C [25]: 86%
viability, T/C [26]: 72.4%
viability, T/C [27]: 3.59%
viability, T/C [28]: 0.33%
viability, T/C [29]: 0.6%
viability, T/C [30]: 72.3%
viability, T/C [31]: 90.1%
viability, T/C [32]: 51.2%
viability, T/C [33]: 2.53%
viability, T/C [34]: 0.48%
viability, T/C [35]: 0.7%

CC(C)c1c(-c2ccccc2)nc2c(C#N)c[nH]n2c1=O + NC1CCC(NC2CC2c2ccccc2)CC1
IC50 [1]: > 10 µM
IC50 [2]: > 10 µM
IC50 [3]: > 10 µM
IC50 [4]: 8.29 µM
IC50 [5]: 4.84 µM
viability, T/C [10]: 93.2%
viability, T/C [11]: 94.5%
viability, T/C (second compound 0.1 µM, first compound 0.316 µM): 90.9%
viability, T/C (second compound 0.1 µM, first compound 1 µM): 87.9%
viability, T/C (second compound 0.1 µM, first compound 3.16 µM): 83%
viability, T/C (second compound 0.1 µM, first compound 10 µM): 56.5%
viability, T/C [16]: 87%
viability, T/C [17]: 79.1%
viability, T/C (second compound 0.316 µM, first compound 0.316 µM): 86.3%
viability, T/C (second compound 0.316 µM, first compound 1 µM): 78.3%
viability, T/C (second compound 0.316 µM, first compound 3.16 µM): 71.4%
viability, T/C (second compound 0.316 µM, first compound 10 µM): 54.4%
viability, T/C [22]: 72.2%
viability, T/C [23]: 78.2%
viability, T/C (second compound 1 µM, first compound 0.316 µM): 78%
viability, T/C (second compound 1 µM, first compound 1 µM): 82.3%
viability, T/C (second compound 1 µM, first compound 3.16 µM): 78.7%
viability, T/C (second compound 1 µM, first compound 10 µM): 53.7%
viability, T/C [28]: 85.4%
viability, T/C [29]: 76.4%
viability, T/C (second compound 3.16 µM, first compound 0.316 µM): 77.8%
viability, T/C (second compound 3.16 µM, first compound 1 µM): 76%
viability, T/C (second compound 3.16 µM, first compound 3.16 µM): 68.3%
viability, T/C (second compound 3.16 µM, first compound 10 µM): 46.2%
viability, T/C [34]: 70%
viability, T/C [35]: 73.8%
viability, T/C (second compound 10 µM, first compound 0.316 µM): 76%
viability, T/C (second compound 10 µM, first compound 1 µM): 66.8%
viability, T/C (second compound 10 µM, first compound 3.16 µM): 54%
viability, T/C (second compound 10 µM, first compound 10 µM): 43.7%

CC(C)CC(NC(=O)C(Cc1ccccc1)NC(=O)c1cnccn1)B(O)O (centres undefined) + NC1CC1c1ccc(-c2cccc(O)c2)cc1
IC50 [1]: < 0.000316 µM
IC50 [2]: < 0.000316 µM
IC50 [3]: < 0.000316 µM
IC50 [4]: < 0.000316 µM
IC50 [5]: < 0.000316 µM
viability, T/C [6]: 1.61%
viability, T/C [7]: 0.66%
viability, T/C [8]: 0.12%
viability, T/C [9]: 0.19%
viability, T/C [10]: 0.14%
viability, T/C [11]: 0.26%
viability, T/C [12]: 3.63%
viability, T/C [13]: 0.1%
viability, T/C [14]: 0.35%
viability, T/C [15]: 0.1%
viability, T/C [16]: 0.09%
viability, T/C [17]: 0.17%
viability, T/C [18]: 1.67%
viability, T/C [19]: 0.11%
viability, T/C [20]: 0.08%
viability, T/C [21]: 0.1%
viability, T/C [22]: 0.1%
viability, T/C [23]: 0.2%
viability, T/C [24]: 1.12%
viability, T/C [25]: 0.11%
viability, T/C [26]: 0.11%
viability, T/C [27]: 0.08%
viability, T/C [28]: 0.09%
viability, T/C [29]: 0.31%
viability, T/C [30]: 1.94%
viability, T/C [31]: 0.27%
viability, T/C [32]: 0.22%
viability, T/C [33]: 5.89%
viability, T/C [34]: 0.35%
viability, T/C [35]: 0.86%

CC[C@@]1(O)C(=O)OCc2c1cc1n(c2=O)Cc2cc3c(CN(C)C)c(O)ccc3nc2-1 + NC1CCC(NC2CC2c2ccccc2)CC1
IC50 [1]: 0.0147 µM
IC50 [2]: 0.0139 µM
IC50 [3]: 0.0144 µM
IC50 [4]: 0.0188 µM
IC50 [5]: 0.0115 µM
viability, T/C [6]: 78.7%
viability, T/C [7]: 91.5%
viability, T/C [8]: 79%
viability, T/C [9]: 57.6%
viability, T/C [10]: 31.9%
viability, T/C [11]: 9.52%
viability, T/C [12]: 91.4%
viability, T/C [13]: 82.2%
viability, T/C [14]: 81.8%
viability, T/C [15]: 55%
viability, T/C [16]: 32.5%
viability, T/C [17]: 13.3%
viability, T/C [18]: 79%
viability, T/C [19]: 81.3%
viability, T/C [20]: 72.2%
viability, T/C [21]: 58%
viability, T/C [22]: 32.8%
viability, T/C [23]: 10.1%
viability, T/C [24]: 72.5%
viability, T/C [25]: 89.8%
viability, T/C [26]: 73.9%
viability, T/C [27]: 63.8%
viability, T/C [28]: 38.5%
viability, T/C [29]: 10%
viability, T/C [30]: 64.4%
viability, T/C [31]: 67.1%
viability, T/C [32]: 64.8%
viability, T/C [33]: 51.8%
viability, T/C [34]: 29.2%
viability, T/C [35]: 7.41%

Nc1ccccc1NC(=O)c1ccc(CNC(=O)OCc2cccnc2)cc1
viability, T/C (compound 0.00949 µM): 88.5% and 100%
viability, T/C (compound 0.03 µM): 82% and 76.7%
viability, T/C (compound 0.0949 µM): 56.3% and 50.2%
viability, T/C (compound 0.3 µM): 30.6% and 28.9%
viability, T/C (compound 0.949 µM): 13.6% and 7.68%
viability, T/C (compound 3 µM): 1.18% and 0.51%
IC50 (curve of compound): 0.133 µM and 0.0978 µM

Nc1ncn(C2CC(O)C(CO)S2)c(=O)n1 (centres undefined)
viability, T/C (compound 0.000949 µM): 92.4% and 104%
viability, T/C (compound 0.003 µM): 110% and 102%
viability, T/C (compound 0.00949 µM): 94.5% and 81.4%
viability, T/C (compound 0.03 µM): 75.4% and 63.8%
viability, T/C (compound 0.0949 µM): 56.8% and 32.5%
viability, T/C (compound 0.3 µM): 45.3% and 17.8%
IC50 (curve of compound): 0.184 µM and 0.048 µM
